Measured values from patent US20210128596A1, “COMPOSITIONS AND METHODS FOR TREATING SEPTIC CARDIOMYOPATHY” (UNIVERSITY OF PENNSYLVANIA, priority 2017, published 2021).
“Also recorded” adds a separate entry of the source.

Columns and labels:
[1] = tested on: AC16 cells; test: Mitochondrial superoxide (MitoSOX Red) in LPS-treated AC16 cells; format: cell-based, human; details: LPS 12 h with SDG/LGM2605 (50 μM)
Protocol: AC16 cells were either left untreated or treated for 12 hours with Liposaccharide (LPS) in the absence or presence of SDG, and subsequently stained with mitosox red.
Measurement of mitochondrial superoxide, mitochondrial membrane potential and mitochondrial number—AC16 cells were cultured in sterile cell culture dishware at approximately 80% confluence. After overnight incubation, cells were treated with LPS (1 μg/ml), LPS and LGM2605 (50 μM). LPS and LGM2605 were diluted in serum free media and the control group was incubated as well with serum free media. At 12 hours after the treatment the AC16 cells were loaded with mitochondrial superoxide indicator MitoSOX Red (5 μM, M36008, Molecular Probes) and incubated for 30 minutes in the dark. Excess MitoSOX Red was removed following three washes with PBS solution. MitoSOX Red fluorescence was recorded at 510 (excitation) and 580 nm (emission).

[2] = tested on: permeabilized adult cardiomyocytes; test: Calcium uptake assay in permeabilized adult cardiomyocytes; format: in vivo, mouse; details: cardiomyocytes isolated 12 h after CLP, 6 h after LGM2605
Protocol: Calcium uptake assay in permeabilized adult cardiomyocytes Cardiomyocytes were isolated from mice 12 hours after CLP or sham surgery and 6 hours after LGM2605 or saline injection. Calcium uptake was performed as previously described^22 and detailed below. Before permeabilization, cardiomyocytes were washed in a Ca free buffer (120 mM NaCl, 5 mM KCL 1 mM KH2PO4, 0.2 mM MgCl2, 0.1 mM EGTA and 20 mM HEPES-NaOH, at pH 7.4) and stored on ice for at least 10 min. Cardiomyocytes were pelleted by centrifugation and transferred to an intracellular-like medium (permeabilization buffer: 120 mM KCl, 10 mM. NaCl, 1 mM KH2PO4, 20 mM, 4 HEPES-Tris, at pH 7.2, protease inhibitors (EDTA-free complete tablets, Roche Applied Science), 2 μM thapsigargin and digitonin (40 μg ml^−1)). The cell suspension supplemented with succinate (2 mM) was placed in a fluorimeter and permeabilized by gentle stirring. Fura2FF (0.5 μM) was added at 0 s, and JC-1 (800 nM) at 20 s. Fluorescence signal was monitored in a temperature-controlled (37° C.) multiwavelength-excitation dual-wavelength-emission spectrofluorometer (Delta RAM, Photon Technology International) using 490-nm excitation/535-nm emission for the JC-1 monomer. 570-nm excitation/595-nm emission for the J-aggregate of JC-1 and 340-nm/380-nm for Fura2FF. At 400 s, a single 10 μM Ca^2+ pulse was added, and changes in cytosolic [Ca^2] was monitored. […]

[3] = tested on: C57BL/6 mice; test: Echocardiography after cecal ligation and puncture (CLP) or sham surgery; format: in vivo, mouse; design: LVID; d / EF / FS / LV Mass / LV Mass (Corrected) / LV Vol; d / IVS; d: unit not given here
Protocol: Mice were either sham treated or subjected to cecal ligation puncture (CLP). SDG was administered either 2 hours prior to CLP or 6 hours following CLP. Echocardiograms from each group of mice was collected (FIG. 2A) and ejection fraction (EF, left) and fractional shortening (FS, right) was determined.
Animal care, cecal ligation and puncture procedure and echocardiography—Animal protocols were approved by the Temple University Institutional Animal Care and Use Committee and were carried out in accordance with the NIH guidelines for the care and use of laboratory animals. Wild type (WT) 8-12 week old C57BL/6 mice were purchased from Jackson labs. Cecal ligation and puncture (CLP) was performed as previously described. Mice were anesthetized with 3.5% inhaled isofluorane. Under aseptic conditions, a 1 to 2 cm midline laparotomy was performed and exposure of the cecum with adjoining intestine. The cecum was tightly ligated at its base below the ileo-cecal valve at a distance of lcm and was punctured twice with a 19-gauge needle. The length of the ligated cecum was defined as the distance from the distal end of cecum to ligation point, which affects the degree of disease severity. Fecal material was extruded from the punctured cecum, and it was returned to the peritoneal cavity. The peritoneum and the skin were closed with three sutures. The mice were resuscitated by injecting subcutaneously lml of pre-warmed 0.9% saline solution to induce the hyperdynamic phase of sepsis and for post-operative analgesia the mice received subcutaneously buprenorphine (0.05 mg·kg body weight). Mice received a single intraperitoneal injection of LGM2605 (100 mg/kg i.p.) that was administrated either 2 h prior to CLP or 6 h post CLP. At 12 h post CLP, two-dimensional echocardiography was performed on anesthetized mice (1.5% inhaled isoflurane) using a VisualSonics Vevo 2100 machine. Echocardiographic images were recorded in a digital format. A single observer blinded to the respective treatments of mice analyzed short-axis m-mode images by LV trace. The number of mice used for each experiment are mentioned in the figure legends.

[4] = CLP + LGM2605 (6 hr), 100 mg/kg i.p. 6 h post CLP, echo 12 h post CLP
[5] = CLP + LGM2605 (−2 hr), 100 mg/kg i.p. 2 h prior to CLP, echo 12 h post CLP
[6] = Sham + LGM2605 (6 hr), 100 mg/kg i.p., echo 12 h post-surgery

SMILES: COc1cc(C[C@@H](CO[C@@H]2O[C@H](CO)[C@@H](O)[C@H](O)[C@H]2O)[C@H](CO[C@@H]2O[C@H](CO)[C@@H](O)[C@H](O)[C@H]2O)Cc2ccc(O)c(OC)c2)ccc1O [LGM2605, secoisolariciresinol diglucoside]
- mitochondrial superoxide levels (Mitosox Red staining) [1]: suppressed by LGM2605
- mitochondrial superoxide levels (Mitosox Red staining) ([1]; listed as SDG): statistically significant decrease in superoxide levels in LPS-treated cells; also recorded: lower mitosox red staining
- mitochondrial calcium uptake [2]: increased mitochondrial Ca^2+ uptake rate and release of Ca^2+ following CCCP administration beyond that observed for sham operated mice
- mitochondrial calcium uptake ([2]; listed as SDG): mitochondrial calcium uptake was increased
- EF [3, 4]: 72.7
- FS [3, 4]: 41.3
- IVS; d [3, 4]: 1.4
- IVS; s [3, 4]: 1.8
- LV Mass [3, 4]: 129.2
- LV Mass (Corrected) [3, 4]: 103.3
- LV Vol; d [3, 4]: 30.2
- LV Vol; s [3, 4]: 8.4
- LVID; d [3, 4]: 2.8
- LVID; s [3, 4]: 1.6
- LVPW; d [3, 4]: 1.1
- LVPW; s [3, 4]: 1.6
- EF [3, 5]: 71.7
- FS [3, 5]: 39.3
- IVS; d [3, 5]: 1.3
- IVS; s [3, 5]: 1.6
- LV Mass [3, 5]: 97.2
- LV Mass (Corrected) [3, 5]: 77.8
- LV Vol; d [3, 5]: 18.6
- LV Vol; s [3, 5]: 5.3
- LVID; d [3, 5]: 2.3
- LVID; s [3, 5]: 1.4
- LVPW; d [3, 5]: 1.1
- LVPW; s [3, 5]: 1.5
- CLP-mediated cardiac dysfunction ([3]; LGM2605 100 mg/kg i.p. 2 h prior to CLP or 6 h post-CLP): prevented CLP-mediated cardiac dysfunction
- cardiac fractional shortening ([3]; SDG 100 mg/kg body weight, i.p., 6 hours post-CLP surgery): increased cardiac fractional shortening
- ejection fraction (EF) and fractional shortening (FS) ([3]; SDG 2 hours prior to CLP or 6 hours following CLP): restores EF and to pre-CLP levels
- EF [3, 6]: 66.7
- FS [3, 6]: 36.4
- IVS; d [3, 6]: 1.1
- IVS; s [3, 6]: 1.5
- LV Mass [3, 6]: 146.7
- LV Mass (Corrected) [3, 6]: 117.4
- LV Vol; d [3, 6]: 55.4
- LV Vol; s [3, 6]: 17.9
- LVID; d [3, 6]: 3.6
- LVID; s [3, 6]: 2.3
- LVPW; d [3, 6]: 1.0
- LVPW; s [3, 6]: 1.4
- systolic function ([3]; septic mice treated with LGM2605): normal systolic function
